From PMC6323428, “Elucidation of the Intestinal Absorption Mechanism of Loganin in the Human Intestinal Caco-2 Cell Model” (Evidence-based Complementary and Alternative Medicine : eCAM, 2018)

Columns and labels:
MRPs = test: Loganin transport across Caco-2 monolayers with MRPs inhibitor MK 571; type: in vitro ADME, human; set-up: key to Modulatory effect: +: Indicates that the inhibitor has significant effect on the loganin transport
Protocol: (§1) Before the experiments, the human intestinal Caco-2 cell monolayers were washed twice with HBSS medium (pH 7.4). The transport experiments were conducted by adding the drug solutions (containing 1% DMSO) to either the apical (AP, 0.5 mL) or basolateral side (BL, 1.0 mL), while the receiving chamber contained the corresponding volume of blank HBSS medium. The monolayers were incubated at 37°C, and 50 μL samples were taken at 15, 30, 45, 60, 90, and 120 min from the acceptor compartment, and the volume was then immediately replaced with50 μL of fresh, prewarmed blank HBSS. TEER measurements for assessing the membrane integrity took place before and after the experiment. The samples were frozen immediately and stored below −80°C before analysis.
(§2) Several efflux and influx transporters were investigated for their effects on the transport flux of loganin. One hundred μM verapamil was added to evaluate the selectivity of P-glycoprotein (P-gp); inhibiting the efflux by multidrug resistance-associated proteins (MRPs) was undertaken by adding 100μM MK571, 50μM benzbromarone, and 200μM indomethacin [21–23]; 25 μM apigenin was used to investigate breast cancer resistance protein (BCRP); 50 μM sodium vanadate and cimetidine were used as Na^+/K^+pump and […] inhibitors.
(§3) UPLC-MS/MS data acquisition was performed using Analyst 1.5.2 and MultiQuant 2.1.1 software (Applied Biosystems). The data were analyzed by SPSS Software. The apparent permeability coefficient (Papp) was calculated according to Papp = (dQ/dt)/(A·C0)
(§4) where dQ/dt is the steady-state flux (nmol/s), A is the surface area of the insert (cm^2); C0 is the initial concentration. The efflux ratio (P) was determined by calculating the ratio of PappBA versus PappAB as in(1) P=PappBA/PappAB Statistical analysis was performed with analysis of variance (ANOVA) after confirmation of normal distributions.

MRP2 [1] = molecular target: T1, MRP2 (Homo sapiens, UniProt Q92887); test: Loganin transport across Caco-2 monolayers with MRP2 inhibitor indomethacin; type: in vitro ADME; set-up: key to Modulatory effect: +: Indicates that the inhibitor has significant effect on the loganin transport
T1 construct: MRP2 and MRP3 were the main apically and basolaterally localized MRPs of the Caco-2 cells; endogenous in cells; host or cells: Caco-2 monolayers
T1 sequence (Q92887 whole entry): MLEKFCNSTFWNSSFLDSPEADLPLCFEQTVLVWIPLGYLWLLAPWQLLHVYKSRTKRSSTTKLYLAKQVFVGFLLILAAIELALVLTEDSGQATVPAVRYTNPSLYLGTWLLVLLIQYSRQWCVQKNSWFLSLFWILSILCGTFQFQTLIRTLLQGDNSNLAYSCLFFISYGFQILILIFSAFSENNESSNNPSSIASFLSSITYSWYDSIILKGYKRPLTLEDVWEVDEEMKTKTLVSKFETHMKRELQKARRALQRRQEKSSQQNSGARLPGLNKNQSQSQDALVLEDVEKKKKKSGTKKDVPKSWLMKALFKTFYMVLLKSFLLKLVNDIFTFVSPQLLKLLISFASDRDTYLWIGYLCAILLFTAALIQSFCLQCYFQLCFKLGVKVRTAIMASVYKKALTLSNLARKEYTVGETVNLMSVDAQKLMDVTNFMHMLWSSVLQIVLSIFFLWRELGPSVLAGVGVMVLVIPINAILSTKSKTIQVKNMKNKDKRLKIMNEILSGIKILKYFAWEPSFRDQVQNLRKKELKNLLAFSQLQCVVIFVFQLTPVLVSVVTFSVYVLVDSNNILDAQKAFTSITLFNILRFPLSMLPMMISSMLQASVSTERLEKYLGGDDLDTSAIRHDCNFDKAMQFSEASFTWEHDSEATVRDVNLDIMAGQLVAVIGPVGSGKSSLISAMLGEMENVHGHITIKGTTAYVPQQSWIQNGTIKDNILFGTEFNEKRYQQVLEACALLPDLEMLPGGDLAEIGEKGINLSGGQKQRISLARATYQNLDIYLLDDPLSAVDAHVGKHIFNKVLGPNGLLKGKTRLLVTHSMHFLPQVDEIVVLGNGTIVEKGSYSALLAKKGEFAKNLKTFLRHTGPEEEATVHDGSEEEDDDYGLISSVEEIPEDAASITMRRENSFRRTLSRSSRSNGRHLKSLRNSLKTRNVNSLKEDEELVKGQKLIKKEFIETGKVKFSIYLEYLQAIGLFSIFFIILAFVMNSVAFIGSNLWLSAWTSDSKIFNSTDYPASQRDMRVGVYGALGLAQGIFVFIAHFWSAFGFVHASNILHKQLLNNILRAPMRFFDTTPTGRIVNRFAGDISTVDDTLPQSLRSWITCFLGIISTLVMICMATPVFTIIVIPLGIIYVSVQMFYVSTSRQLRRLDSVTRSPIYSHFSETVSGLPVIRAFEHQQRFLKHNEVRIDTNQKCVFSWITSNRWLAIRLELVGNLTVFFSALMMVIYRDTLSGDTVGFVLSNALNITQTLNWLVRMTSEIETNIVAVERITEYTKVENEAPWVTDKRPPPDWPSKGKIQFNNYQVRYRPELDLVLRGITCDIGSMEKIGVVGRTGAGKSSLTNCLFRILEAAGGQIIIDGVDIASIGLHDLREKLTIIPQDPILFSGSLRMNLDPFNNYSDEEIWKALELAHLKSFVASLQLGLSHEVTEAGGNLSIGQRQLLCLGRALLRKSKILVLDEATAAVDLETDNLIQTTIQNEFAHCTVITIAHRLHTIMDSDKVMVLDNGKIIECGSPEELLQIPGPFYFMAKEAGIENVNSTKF
Protocol: as §1, §2, §3, §4

MRP2 [2] = tested on: T2, MRP2; test: as above; type: in vitro ADME, human; set-up: key to Modulatory effect: +: Indicates that the inhibitor has significant effect on the loganin transport; details: human, Caco-2, pH 7.4; with indomethacin 200 μM, loganin 20 μM, n = 3
T2 construct: MRP2 and MRP3 were the main apically and basolaterally localized MRPs of the Caco-2 cells; endogenous in cells; host or cells: Caco-2 monolayers
Protocol: as §1, §2, §3, §4

MRP2, MRP3 = test: Loganin transport across Caco-2 monolayers with MRP2/MRP3 inhibitor benzbromarone; type: in vitro ADME, human; set-up: key to Modulatory effect: +: Indicates that the inhibitor has significant effect on the loganin transport
Protocol: as §1, §2, §3, §4

BCRP [3] = molecular target: T3, BCRP (Homo sapiens, UniProt Q9UNQ0); test: Loganin transport across Caco-2 monolayers with BCRP inhibitor apigenin; type: in vitro ADME; set-up: key to Modulatory effect: +: Indicates that the inhibitor has significant effect on the loganin transport
T3 construct: endogenous in cells; host or cells: Caco-2 monolayers
T3 sequence (Q9UNQ0 1-655): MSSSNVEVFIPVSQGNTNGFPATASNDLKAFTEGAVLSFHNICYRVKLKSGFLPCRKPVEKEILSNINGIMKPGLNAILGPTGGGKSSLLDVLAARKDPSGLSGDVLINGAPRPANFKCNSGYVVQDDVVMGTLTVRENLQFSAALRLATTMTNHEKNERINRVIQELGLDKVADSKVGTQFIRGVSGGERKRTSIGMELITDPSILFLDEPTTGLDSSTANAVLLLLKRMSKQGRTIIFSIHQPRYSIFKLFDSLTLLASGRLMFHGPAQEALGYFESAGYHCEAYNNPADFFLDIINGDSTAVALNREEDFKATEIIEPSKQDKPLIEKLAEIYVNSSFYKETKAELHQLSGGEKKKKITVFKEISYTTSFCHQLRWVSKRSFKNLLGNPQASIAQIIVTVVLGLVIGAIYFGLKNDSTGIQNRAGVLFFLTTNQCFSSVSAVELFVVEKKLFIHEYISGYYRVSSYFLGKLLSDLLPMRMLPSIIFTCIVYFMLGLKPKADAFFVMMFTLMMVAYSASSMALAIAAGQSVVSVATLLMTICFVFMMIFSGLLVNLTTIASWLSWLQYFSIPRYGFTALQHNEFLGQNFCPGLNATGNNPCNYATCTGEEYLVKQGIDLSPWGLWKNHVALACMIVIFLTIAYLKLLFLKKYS
Protocol: as §1, §2, §3, §4

BCRP [4] = tested on: T4, BCRP; test: as above; type: in vitro ADME, human; set-up: key to Modulatory effect: +: Indicates that the inhibitor has significant effect on the loganin transport; details: human, Caco-2, pH 7.4; with apigenin 25 μM, loganin 20 μM, n = 3
T4 construct: endogenous in cells; host or cells: Caco-2 monolayers
Protocol: as §1, §2, §3, §4

Na+/K+ pump = test: Loganin transport across Caco-2 monolayers with Na+/K+ pump inhibitor sodium vanadate; type: in vitro ADME, human; details: human
Protocol: as §1, §2, §3, §4

Na^+/K^+pump = test: as above; type: in vitro ADME, human; details: pretreatment with 50 μM sodium vanadate
Protocol: as §1, §2, §3, §4

OATs = test: Loganin transport across Caco-2 monolayers with OATs inhibitor cimetidine; type: in vitro ADME, human
Protocol: as §1, §2, §3, §4

[5] = set-up: method as in PMID 35540372; details: rats; cited from earlier work
[6] = stated as well known, no reference given; cited from earlier work
[7] = with 100 μM MK 571, 20 μM loganin
[8] = human, Caco-2, pH 7.4, with benzbromarone 50 μM, loganin 20 μM, n = 3
[9] = Caco-2, pH 7.4, with sodium vanadate 50 μM, loganin 20 μM, n = 3
[10] = human, Caco-2, pH 7.4, with cimetidine 50 μM, loganin 20 μM, n = 3

For `COC(=O)C1=CO[C@@H](O[C@@H]2O[C@H](CO)[C@@H](O)[C@H](O)[C@H]2O)[C@@H]2[C@@H](C)[C@@H](O)C[C@H]12` [loganin, Loganin], the “PappAB relative to control group” value (MRPs; [7]) was roughly 2 fold, the “Reduction of PappBA vs control” value (MRPs; [7]) was 66.7% and the Modulatory effect (MRPs; with MK 571 100 μM) was “+”. For the same compound, the efflux ratio at 120 min, 20 μM (MRP2 [1]; human, Caco-2, pH 7.4, with indomethacin 200 μM, read-out: P (efflux ratio PappBA/PappAB)) was 0.18, the Modulatory effect (MRP2 [1]; with indomethacin 200 μM) was “+” and the “Increase of PappAB vs control” value (MRP2 [1]; with indomethacin, p < 0.01) was 2.0 fold. It also gave a Papp A→B at 120 min, 20 μM (MRP2 [2]) of 24.7 ± 4.8 ×10⁻⁶ cm/s, a Papp B→A at 120 min, 20 μM (MRP2 [2]) of 4.4 ± 1.1 ×10⁻⁶ cm/s and an efflux ratio at 120 min, 20 μM (MRP2, MRP3; human, Caco-2, pH 7.4, with benzbromarone 50 μM, read-out: P (efflux ratio PappBA/PappAB)) of 0.23. The Papp A→B at 120 min, 20 μM (MRP2, MRP3; [8]) was 29.5 ± 5.9 ×10⁻⁶ cm/s, the Papp B→A at 120 min, 20 μM (MRP2, MRP3; [8]) was 6.7 ± 0.9 ×10⁻⁶ cm/s and the Modulatory effect (MRP2, MRP3; with benzbromarone 50 μM) was “+”. For the same compound, the efflux ratio at 120 min (BCRP [3]; human, Caco-2, pH 7.4, with apigenin 25 μM, read-out: P (efflux ratio PappBA/PappAB)) was 0.41, the “Substrate of BCRP (in words)” value (BCRP [3]; judged from apigenin vs control) was “substrate” and the Modulatory effect (BCRP [3]; with apigenin 25 μM) was “+”. The Papp A→B at 120 min, 20 μM (BCRP [4]) was 30.1 ± 6.2 ×10⁻⁶ cm/s, the Papp B→A at 120 min, 20 μM (BCRP [4]) was 12.3 ± 2.5 ×10⁻⁶ cm/s and the efflux ratio at 120 min, 20 μM (Na+/K+ pump; Caco-2, pH 7.4, with sodium vanadate 50 μM, read-out: P (efflux ratio PappBA/PappAB)) was 0.73. The Papp A→B at 120 min, 20 μM (Na+/K+ pump; [9]) was 12.3 ± 0.7 ×10⁻⁶ cm/s, the Papp B→A at 120 min, 20 μM (Na+/K+ pump; [9]) was 9 ± 1.1 ×10⁻⁶ cm/s and the “Effect on Papp values (in words)” value (Na^+/K^+pump) was “no significant effects”. For the same compound, the efflux ratio at 120 min, 20 μM (OATs; human, Caco-2, pH 7.4, with cimetidine 50 μM, read-out: P (efflux ratio PappBA/PappAB)) was 0.9, the Papp A→B at 120 min, 20 μM (OATs; [10]) was 11 ± 1.5 ×10⁻⁶ cm/s and the Papp B→A at 120 min, 20 μM (OATs; [10]) was 9.9 ± 2 ×10⁻⁶ cm/s. The “Effect on Papp values (in words)” value (OATs; pretreatment with 50 μM cimetidine) was “no significant effects”, the “Oral bioavailability (in words)” value [5] was “low” and the “Water solubility (in words)” value [6] was “low”.
